Measured values published in patent publication US11685744B2, “CDK inhibitors and their use as pharmaceuticals” (Prelude Therapeutics, Incorporated, priority 2020, dated 2023).

Test system: MCF7 adenocarcinoma cell line
Test: Cell proliferation studies in MCF7 cells (ATP-Lite, 10 days)
Format: cell-based
Details: Homo sapiens, 240 h, read-out: PROLIFERATION_CTG_MCF7 IC50
Protocol: Cell Proliferation Studies in MCF7 Cells
Cell proliferation studies were conducted in MCF7 adenocarcinoma cell line. Cells were maintained in DMEM (Coming, Catalog #: 10-013-CV) supplemented with 10% v/v FBS (Gibco, Catalog #: 26140-079), 1% v/v Penicillin Streptomycin (Gibco, Catalog #15140-122) Cells were seeded in 384-well plates at a density of 100 or 200 cells/well. Compounds dissolved in DMSO were plated in quadruplicate using a digital dispenser (D300E, Tecan) and tested on a 9-point 3-fold serial dilution. Cells were incubated for 10 days in a 37° C. active humidified incubator at 5% CO2. A media exchange and second compound addition were performed on day 5. Cell viability was measured using the ATP-Lite 1-Step Luminescence reagent (Perkin Elmer, Catalog #: 6016731) as per manufacturer's instructions. Luminescence signal was measured with a multimode plate reader (Envision 2105, Perkin Elmer). Raw data files were imported to Dotmatics Screening Ultra for IC50 analysis. Luminescence values were normalized to both background and DMSO controls to obtain a percentage of viable cells relative to DMSO vehicle control.

Row | IC50 [nM] | Compound
1 | 200 to 2000 | Cc1c(-c2nc(Nc3ccc(C4CC[C@H]5CN(C)C(=O)CN45)cn3)ncc2F)sc2c1nc(C)n2C(C)C (single isomer, unassigned) [Example 118]
2 | 20 to 200 | CCN1CCC(c2ccc(Nc3ncc(F)c(-c4sc5c(nc(C)n5C5CCCC5)c4C)n3)nc2)CC1 [Example 5, 4-(3-Cyclopentyl-2,6-dimethyl-3H-thieno[2,3-d]imidazol-5-yl)-N-(5-(1-ethylpiperidin-4-yl)pyridin-2-yl)-5-fluoro-pyrimidin-2-amine]
3 | 20 to 200 | Cc1c(-c2nc(Nc3ccc(C4CCN(C)CC4)cn3)ncc2F)sc2c1nc(C)n2C1CCCC1 [Example 6, 4-(3-Cyclopentyl-2,6-dimethyl-3H-thieno[2,3-d]imidazol-5-yl)-5-fluoro-N-(5-(1-methylpiperidin-4-yl)pyridin-2-yl)pyrimidin-2-amine]
4 | 20 to 200 | Cc1c(-c2nc(Nc3ccc(N4CCN(C)CC4)cn3)ncc2F)sc2c1nc(C)n2C1CCCC1 [Example 7, 4-(3-Cyclopentyl-2,6-dimethyl-3H-thieno[2,3-d]imidazol-5-yl)-5-fluoro-N-(5-(4-methyl-piperazin-1-yl)pyridin-2-yl)pyrimidin-2-amine]

Biological target: CDK4/Cyclin D1 (Homo sapiens (Human), UniProt P11802)
Test: CDK4/CyclinD1 enzymatic activity assay (TR-FRET)
Format: biochemical
Details: ATP 2 mM, read-out: CDK4_D1 IC50
Protocol: CDK4/CyclinD1 Enzymatic Activity Assay
The inhibitory activity of compounds was evaluated in vitro using TR-FRET assay with white 384-well low volume microplate (Greiner Bio-One). CDK4/Cyclin D1 catalyzed phosphorylation of peptide in the presence and absence of compounds was measured. IC50 determination. Recombinant protein complex CDK4/Cyclin D1, expressed from insect cell, was purchased from ProQinase. Testing compounds were dissolved in DMSO at 0.1 mM and tested in 9-dose IC50 mode. The reaction mixture was prepared by mixing CDK4/CyclinD1 (1 nM final), ULight-4E-BP1 (100 nM final, Perkinelmer, TRF0128-D), and ATP (2 mM final) in assay buffer (20 mM of HEPES pH 7.4, 1 mM of EGTA, 0.05% BSA, 0.005% Tween 20, and 1 mM TCEP). The compound of interest in DMSO was added to each well in 3-fold serial dilution by dispenser (TECAN D300E). After 20 minutes preincubation at room temperature, MgCl2 (10 mM final) was added to initiate the reaction. Following a 60 minutes incubation at 37° C., the reaction was stopped by addition of 2 μL of quenching buffer consisting of Lance detection buffer (Perkinelmer CR97-100C), 2 nM LANCE Ultra Europium-anti-P-4E-BP1 (Perkinelmer, TRF0216-D), 10 mM EDTA, and incubate at room temperature for additional 60 minutes in dark. The reaction signal was measured by Envision multimode plate reader (PerkinElmer, 2102-0010). IC50 values were determined by fitting the data to the standard 4 parameters with Hill Slope using GraphPad Prism software.

CDK4/Cyclin D1, sequence (P11802 whole entry): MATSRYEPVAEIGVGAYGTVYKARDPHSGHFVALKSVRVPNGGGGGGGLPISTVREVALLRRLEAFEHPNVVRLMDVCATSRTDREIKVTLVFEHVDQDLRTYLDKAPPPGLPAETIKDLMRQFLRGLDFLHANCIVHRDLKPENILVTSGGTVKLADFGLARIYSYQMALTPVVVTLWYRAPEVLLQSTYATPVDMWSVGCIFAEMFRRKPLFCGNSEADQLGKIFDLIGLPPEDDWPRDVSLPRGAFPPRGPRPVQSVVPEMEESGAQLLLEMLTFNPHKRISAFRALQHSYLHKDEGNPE
CDK4/Cyclin D1, sequence (P24385 whole entry partner): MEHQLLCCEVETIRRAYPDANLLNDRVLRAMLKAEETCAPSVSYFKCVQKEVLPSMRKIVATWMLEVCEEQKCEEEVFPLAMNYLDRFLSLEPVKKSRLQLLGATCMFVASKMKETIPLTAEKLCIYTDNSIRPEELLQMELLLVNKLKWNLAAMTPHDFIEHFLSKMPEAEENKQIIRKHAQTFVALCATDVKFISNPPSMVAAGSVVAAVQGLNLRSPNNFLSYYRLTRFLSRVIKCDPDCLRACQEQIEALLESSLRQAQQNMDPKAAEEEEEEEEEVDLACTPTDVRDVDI

Row | Compound | IC50 [nM]
5 | CCN1CCC(c2ccc(Nc3ncc(F)c(-c4sc5c(nc(C)n5C5CCCC5)c4C)n3)nc2)CC1 [Example 5, 4-(3-Cyclopentyl-2,6-dimethyl-3H-thieno[2,3-d]imidazol-5-yl)-N-(5-(1-ethylpiperidin-4-yl)pyridin-2-yl)-5-fluoro-pyrimidin-2-amine] | 20 to 200
6 | CCN1CCN(Cc2ccc(Nc3ncc(F)c(-c4sc5c(nc(C)n5C5CCCC5)c4C)n3)nc2)CC1 [Example 12, 4-(3-Cyclopentyl-2,6-dimethyl-3H-thieno[2,3-d]imidazol-5-yl)-N-(5-((4-ethylpiperazin-1-yl)methyl)pyridin-2-yl)-5-fluoropyrimidin-2-amine] | 200 to 2000
7 | Cc1nc2cc(-c3nc(Nc4ccc(CN5CCC(C(=O)N(C)C)C5)cn4)ncc3F)sc2n1C(C)C (centres unmarked) [Example 65, 1-[[6-[[5-Fluoro-4-(2-methyl-3-propan-2-ylthieno[2,3-d]imidazol-5-yl)pyrimidin-2-yl]amino]pyridin-3-yl]methyl]-N,N-dimethylpyrrolidine-3-carboxamide] | 20 to 200
8 | CCN1CC2(C1)CN(c1ccc(Nc3ncc(F)c(-c4sc5c(C6CC6)n(C)nc5c4C)n3)nc1)C2 [Example 101, 4-(3-Cyclopropyl-2,6-dimethyl-2H-thieno[3,2-c]pyrazol-5-yl)-N-(5-(6-ethyl-2,6-diazaspiro[3.3]heptan-2-yl)pyridin-2-yl)-5-fluoropyrimidin-2-amine] | 20 to 200
9 | CCN1CCN(c2ccc(Nc3ncc(F)c(-c4sc5c(C(C)=O)n(C)nc5c4C)n3)nc2)CC1 [Example 103, 1-(5-(2-((5-(4-ethylpiperazin-1-yl)pyridin-2-yl)amino)-5-fluoropyrimidin-4-yl)-2,6-dimethyl-2H-thieno[3,2-c]pyrazol-3-yl)ethan-1-one] | 200 to 2000
10 | CCN1CCN(c2ccc(Nc3ncc(F)c(-c4sc5c(C(C)O)n(C)nc5c4C)n3)nc2)CC1 (centres unmarked) [Example 104, 1-(5-(2-((5-(4-Ethylpiperazin-1-yl)pyridin-2-yl)amino)-5-fluoropyrimidin-4-yl)-2,6-dimethyl-2H-thieno[3,2-c]pyrazol-3-yl)ethan-1-ol] | 20 to 200
11 | CCN1CCN(c2ccc(Nc3ncc(F)c(-c4sc5c(C(C)C)nn(C)c5c4C)n3)nc2)CC1 [Example 106, 4-(1,6-Dimethyl-3-propan-2-ylthieno[3,2-c]pyrazol-5-yl)-N-[5-(4-ethylpiperazin-1-yl)pyridin-2-yl]-5-fluoropyrimidin-2-amine] | 200 to 2000
12 | Cc1nc2cc(-c3nc(Nc4cccnn4)ncc3F)sc2n1C(C)C [Example 107, N-(5-Fluoro-4-(3-isopropyl-2-methyl-3H-thieno[2,3-d]imidazol-5-yl)pyrimidin-2-yl)pyridazin-3-amine] | 20 to 200
13 | CN1CCC(c2ccc(Nc3ncc(F)c(-c4cc5c(=O)n(C)nc(C67CC(F)(C6)C7)c5s4)n3)nc2)CC1 [Example 110, 2-(5-Fluoro-2-((5-(1-methylpiperidin-4-yl)pyridin-2-yl)amino)pyrimidin-4-yl)-7-(3-fluorobicyclo[1.1.1]pentan-1-yl)-5-methylthieno[2,3-d]pyridazin-4(5H)-one] | 200 to 2000
14 | CCN1CCN(c2cccc(Nc3ncc(F)c(-c4sc5c(nc(C)n5C(C)C)c4C)n3)n2)CC1 [Example 113, 4-(2,6-Dimethyl-3-propan-2-ylthieno[2,3-d]imidazol-5-yl)-N-[6-(4-ethylpiperazin-1-yl)pyridin-2-yl]-5-fluoropyrimidin-2-amine] | 200 to 2000
15 | CCN1CCN(c2ccnc(Nc3ncc(F)c(-c4sc5c(nc(C)n5C(C)C)c4C)n3)c2)CC1 [Example 119, 4-(2,6-Dimethyl-3-propan-2-ylthieno[2,3-d]imidazol-5-yl)-N-[4-(4-ethylpiperazin-1-yl)pyridin-2-yl]-5-fluoropyrimidin-2-amine] | 200 to 2000
16 | CCN1CCN(c2ccc(Nc3ncc(F)c(-c4sc5c(C(C)C)ccnc5c4C#N)n3)nc2)CC1 [Example 122, 2-(2-((5-(4-Ethylpiperazin-1-yl)pyridin-2-yl)amino)-5-fluoropyrimidin-4-yl)-7-isopropylthieno[3,2-b]pyridine-3-carbonitrile] | 20 to 200
17 | COc1cnc(Nc2ccc(C3CCN(C)CC3)cn2)nc1-c1cc2nc(C)n(C(C)C)c2s1 [Example 127, 4-(3-Isopropyl-2-methyl-3H-thieno[2,3-d]imidazol-5-yl)-5-methoxy-N-(5-(1-methylpiperidin-4-yl)pyridin-2-yl)pyrimidin-2-amine] | 20 to 200

The next lines start with the values.

Row | IC50 [nM] | Compound
18 | ≤ 20 | Cc1c(-c2nc(Nc3ccc(C4CC[C@H]5CN(C)C(=O)CN45)cn3)ncc2F)sc2c1nc(C)n2C(C)C (single isomer, unassigned) [Example 118]
19 | ≤ 20 | Cc1c(-c2nc(Nc3ccc(C4CCN(C)CC4)cn3)ncc2F)sc2c1nc(C)n2C1CCCC1 [Example 6, 4-(3-Cyclopentyl-2,6-dimethyl-3H-thieno[2,3-d]imidazol-5-yl)-5-fluoro-N-(5-(1-methylpiperidin-4-yl)pyridin-2-yl)pyrimidin-2-amine]
20 | ≤ 20 | Cc1c(-c2nc(Nc3ccc(N4CCN(C)CC4)cn3)ncc2F)sc2c1nc(C)n2C1CCCC1 [Example 7, 4-(3-Cyclopentyl-2,6-dimethyl-3H-thieno[2,3-d]imidazol-5-yl)-5-fluoro-N-(5-(4-methyl-piperazin-1-yl)pyridin-2-yl)pyrimidin-2-amine]
21 | ≤ 20 | CCN1CC2(C1)CN(c1ccc(Nc3ncc(F)c(-c4cc5nccc(C6CCCC6)c5s4)n3)nc1)C2 [Example 15, 4-(7-Cyclopentylthieno[3,2-b]pyridin-2-yl)-N-[5-(6-ethyl-2,6-diazaspiro[3.3]heptan-2-yl)pyridin-2-yl]-5-fluoropyrimidin-2-amine]
22 | ≤ 20 | Cc1c(-c2nc(Nc3ccc(N4CCNCC4)cn3)ncc2F)sc2c(C3CCCC3)ccnc12 [Example 35, 4-(7-Cyclopentyl-3-methylthieno[3,2-b]pyridin-2-yl)-5-fluoro-N-(5-(piperazin-1-yl)pyridin-2-yl)pyrimidin-2-amine]
23 | ≤ 20 | Cc1c(-c2nc(Nc3ccc(N4CC5(CN(C)CC5(F)F)C4)cn3)ncc2F)sc2c1nc(C)n2C(C)C [Example 70, N-[5-(5,5-Difluoro-7-methyl-2,7-diazaspiro[3.4]octan-2-yl)pyridin-2-yl]-4-(2,6-dimethyl-3-propan-2-ylthieno[2,3-d]imidazol-5-yl)-5-fluoropyrimidin-2-amine]
24 | ≤ 20 | Cc1c(-c2nc(Nc3ccc(N4CCC5(CCN(C)C5)C4)cn3)ncc2F)sc2c(C(C)C)cn(C)c(=O)c12 (centres unmarked) [Example 76, 2-(5-Fluoro-2-((5-(7-methyl-2,7-diazaspiro[4.4]nonan-2-yl)pyridin-2-yl)amino)pyrimidin-4-yl)-7-isopropyl-3,5-dimethylthieno[3,2-c]pyridin-4(5H)-one]
25 | ≤ 20 | CCN1CCN(C(C)c2ccc(Nc3ncc(F)c(-c4cc5nc(C)n(C(C)C)c5s4)n3)nc2)CC1 (centres unmarked) [Example 116, N-[5-[1-(4-Ethylpiperazin-1-yl)ethyl]pyridin-2-yl]-5-fluoro-4-(2-methyl-3-propan-2-ylthieno[2,3-d]imidazol-5-yl)pyrimidin-2-amine]
26 | ≤ 20 | Cc1nc2cc(-c3nc(Nc4ccc(C5C(=O)N(C)CCN5C)cn4)ncc3F)sc2n1C(C)C (centres unmarked) [Example 117, 3-[6-[[5-Fluoro-4-(2-methyl-3-propan-2-ylthieno[2,3-d]imidazol-5-yl)pyrimidin-2-yl]amino]pyridin-3-yl]-1,4-dimethylpiperazin-2-one]
